Data as given in patent US12084459B2, “2-(4-{1-[6-(4-isopropyl-phenyl)-imidazo[2,1-b][1,3,4]thiadiazol-2-yl]-piperidin-4-ylmethyl}-piperazin-1-yl)-ethanol and use thereof” (Urifer Ltd., priority 2020, dated 2024).

Test: toxicity in mice: body weight and observations after IP administration
Assay type: in vivo
Details: for body weight / body weight change (% wt/wt): female mice
Method in brief: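 Mice (female where stated) received the test compound intraperitoneally on day 1, dissolved in 20% hydroxypropylcyclodextrane at an administration volume of 10 ml/kg. Toxicity was assessed from body weight, body weight change (% wt/wt) and observations of the animals after administration.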

CC(C)c1ccc(-c2cn3nc(N4CCC(CN5CCN(CCO)CC5)CC4)sc3n2)cc1 [Compound E266, 2-(4-{1-[6-(4-isopropyl-phenyl)-imidazo[2,1-b][1,3,4]thiadiazol-2-yl]-piperidin-4-ylmethyl}-piperazin-1-yl)-ethanol]
body weight (100 mg/kg IP, day 1): 36.1 g
body weight change (% wt/wt) (100 mg/kg IP, day 1): 0%
body weight (100 mg/kg IP, day 2): 35.7 g
body weight change (% wt/wt) (100 mg/kg IP, day 2): −1.1%
body weight (100 mg/kg IP, day 3): 36.1 g
body weight change (% wt/wt) (100 mg/kg IP, day 3): 0.0%
body weight (100 mg/kg IP, day 4): 35.2 g
body weight change (% wt/wt) (100 mg/kg IP, day 4): −2.5%
body weight (100 mg/kg IP, day 5): 34 g
body weight change (% wt/wt) (100 mg/kg IP, day 5): −5.8%
body weight (100 mg/kg IP, day 6): 33.9 g
body weight change (% wt/wt) (100 mg/kg IP, day 6): −6.1%
body weight (100 mg/kg IP, day 7): 34 g
body weight change (% wt/wt) (100 mg/kg IP, day 7): −5.8%
body weight (100 mg/kg IP, day 8): 33.6 g
body weight change (% wt/wt) (100 mg/kg IP, day 8): −6.9%
body weight (100 mg/kg IP, day 9): 32.4 g
body weight change (% wt/wt) (100 mg/kg IP, day 9): −10.2%
body weight (100 mg/kg IP, day 10): 33.5 g
body weight change (% wt/wt) (100 mg/kg IP, day 10): −7.2%
body weight (100 mg/kg IP, day 11): 32.6 g
body weight change (% wt/wt) (100 mg/kg IP, day 11): −9.7%
body weight (100 mg/kg IP, day 12): 33.4 g
body weight change (% wt/wt) (100 mg/kg IP, day 12): −7.5%
body weight (100 mg/kg IP, day 13): 32.8 g
body weight change (% wt/wt) (100 mg/kg IP, day 13): −9.1%
body weight (100 mg/kg IP, day 14): 32.2 g
body weight change (% wt/wt) (100 mg/kg IP, day 14): −10.8%
body weight (100 mg/kg IP, day 15): 32.4 g
body weight change (% wt/wt) (100 mg/kg IP, day 15): −10.2%
body weight (200 mg/kg IP, day 1): 31.5 g
body weight change (% wt/wt) (200 mg/kg IP, day 1): 0%
body weight (200 mg/kg IP, day 2): 30.5 g
body weight change (% wt/wt) (200 mg/kg IP, day 2): −3.2%
body weight (200 mg/kg IP, day 3): 30.8 g
body weight change (% wt/wt) (200 mg/kg IP, day 3): −2.2%
body weight (200 mg/kg IP, day 4): 30.6 g
body weight change (% wt/wt) (200 mg/kg IP, day 4): −2.9%
body weight (200 mg/kg IP, day 5): 30.6 g
body weight change (% wt/wt) (200 mg/kg IP, day 5): −2.9%
body weight (200 mg/kg IP, day 6): 30.9 g
body weight change (% wt/wt) (200 mg/kg IP, day 6): −1.9%
body weight (200 mg/kg IP, day 7): 31 g
body weight change (% wt/wt) (200 mg/kg IP, day 7): −1.6%
body weight (200 mg/kg IP, day 8): 31.1 g
body weight change (% wt/wt) (200 mg/kg IP, day 8): −1.3%
body weight (200 mg/kg IP, day 9): 30.6 g
body weight change (% wt/wt) (200 mg/kg IP, day 9): −2.9%
body weight (200 mg/kg IP, day 10): 31.2 g
body weight change (% wt/wt) (200 mg/kg IP, day 10): −1.0%
body weight (200 mg/kg IP, day 11): 29.9 g
body weight change (% wt/wt) (200 mg/kg IP, day 11): −5.1%
body weight (200 mg/kg IP, day 12): 30.6 g
body weight change (% wt/wt) (200 mg/kg IP, day 12): −2.9%
body weight (200 mg/kg IP, day 13): 30.6 g
body weight change (% wt/wt) (200 mg/kg IP, day 13): −2.9%
body weight (200 mg/kg IP, day 14): 30.8 g
body weight change (% wt/wt) (200 mg/kg IP, day 14): −2.2%
body weight (200 mg/kg IP, day 15): 30.5 g
body weight change (% wt/wt) (200 mg/kg IP, day 15): −3.2%
body weight (400 mg/kg IP, day 1): 31.1 g
body weight change (% wt/wt) (400 mg/kg IP, day 1): 0%
body weight (400 mg/kg IP, day 2): 30.5 g
body weight change (% wt/wt) (400 mg/kg IP, day 2): −1.9%
body weight (400 mg/kg IP, day 3): 29.6 g
body weight change (% wt/wt) (400 mg/kg IP, day 3): −4.8%
body weight (400 mg/kg IP, day 4): 28.6 g
body weight change (% wt/wt) (400 mg/kg IP, day 4): −8.0%
body weight (400 mg/kg IP, day 5): 28.4 g
body weight change (% wt/wt) (400 mg/kg IP, day 5): −8.7%
body weight (400 mg/kg IP, day 6): 28.5 g
body weight change (% wt/wt) (400 mg/kg IP, day 6): −8.4%
body weight (400 mg/kg IP, day 7): 28.4 g
body weight change (% wt/wt) (400 mg/kg IP, day 7): −8.7%
body weight (400 mg/kg IP, day 8): 28.7 g
body weight change (% wt/wt) (400 mg/kg IP, day 8): −7.7%
body weight (400 mg/kg IP, day 9): 29 g
body weight change (% wt/wt) (400 mg/kg IP, day 9): −6.8%
body weight (400 mg/kg IP, day 10): 29.3 g
body weight change (% wt/wt) (400 mg/kg IP, day 10): −5.8%
body weight (400 mg/kg IP, day 11): 29 g
body weight change (% wt/wt) (400 mg/kg IP, day 11): −6.8%
body weight (400 mg/kg IP, day 12): 29.4 g
body weight change (% wt/wt) (400 mg/kg IP, day 12): −5.5%
body weight (400 mg/kg IP, day 13): 29.8 g
body weight change (% wt/wt) (400 mg/kg IP, day 13): −4.2%
body weight (400 mg/kg IP, day 14): 29.8 g
body weight change (% wt/wt) (400 mg/kg IP, day 14): 4.2%
body weight (400 mg/kg IP, day 15): 29.2 g
body weight change (% wt/wt) (400 mg/kg IP, day 15): −6.1%
toxicity (male and female mice, 100-400 mg/kg IP in 20% hydroxypropylcyclodextrane, 10 ml/kg): not toxic
